Test results: the METLIN SMRT retention time set (Domingo-Almenara et al. 2019)

experiment: gradient 5% acetonitrile 3 min, to 50% in 2 min, to 85% in 15 min, held 3 min, 100 µL/min; settings: column: Zorbax Extend-C18 2.1 x 50 mm; eluents: water / acetonitrile, 0.1% formic acid
Outline: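 The system's dead and dwell volumes were 40 μL and 900 μL, with a Zorbax Extend-C18 column (2.1 × 50 mm, 1.8 μm) run at 100 μL/min in water and acetonitrile containing 0.1% formic acid each. Pure standards were analyzed in mixtures of ~100 molecules by HPLC–quadrupole time-of-flight mass spectrometry in positive and negative ionization mode. Retention time was assigned from computationally picked, manually inspected adduct peaks.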

Row | Structure (SMILES) | RP-LC retention time [s]
1 | CCOC(=O)c1[nH]c(C)c(CCC(=O)N2CCC(C(=O)NC(C)CC)CC2)c1C (centres undefined) | 723
2 | CCOc1ccc(NC(=O)c2sc(N3CCCC3=O)nc2CC)cc1 | 875
3 | COc1ccccc1NC(=O)CN1c2ccc(F)cc2-c2ccccc2S1(=O)=O | 1000
4 | COc1ccc(-c2csc3c(=O)n(Cc4ccc(F)cc4)cnc23)cc1 | 1050
5 | CCn1cnc2ccc(-c3noc(-c4ccccc4)n3)cc21 | 758
6 | CN1CCN(CCNC(=O)c2ccc3c(c2)N(S(=O)(=O)c2ccccc2F)CC3)CC1 | 617
7 | Cc1cc(C)c(NC(=O)Cn2cnc3onc(C)c3c2=O)c(C)c1 | 764
8 | NC(=O)[C@@H]1C[C@H](Oc2ccccc2)CN1C1CCCC1 | 584
9 | COC(=O)c1ccc(NC(=O)Cn2cnc3nc(N4CCCC4)ncc3c2=O)cc1 | 690
10 | CCC(=O)N1CCc2cc(N3CC(C(=O)Nc4cc(C)ccc4OC)CC3=O)ccc21 (centres undefined) | 794
11 | O=c1c2scc(-c3cccc(F)c3)c2ncn1Cc1ccc(Br)cc1 | 1170
12 | Cc1cc(N2CCN(c3ccccn3)CC2)n2ncc(-c3ccc(F)cc3)c2n1 | 732
13 | CC(C)n1cnc2cc(CNC(=O)C3(c4ccccc4)CC3)ccc21 | 648
14 | COCCn1cc(CCNC(=O)Nc2ccc(Br)c(C)c2)c2cccnc21 | 821
15 | Cc1cc(C)n2nc(CN(C(=O)c3cccs3)c3ccccc3)nc2n1 | 777
16 | CCCN(CCC)CCc1ccc(O)c(O)c1 | 602
17 | COCCOC1CCC12CCN(C(=O)c1cnc[nH]1)CC2 (centres undefined) | 575
18 | Cc1nc(C)c(-c2ccc(SCC(=O)N3CCCc4ccccc43)nn2)s1 | 779
19 | CCc1c(C)nc2nc(-c3ccccc3)nn2c1NCc1ccc(C)cc1 | 996
20 | Cc1sc2ncn3c(=O)n(CC(=O)N4CCc5ccccc5C4)nc3c2c1C | 894
21 | COc1ccc(CNC(=O)Cc2cn(C)c3ncccc23)c(OC)c1 | 676
22 | CCc1nn2c(CNC(=O)c3cccc(Br)c3)c(C)nc2s1 | 686
23 | COC(=O)c1cnc(N2CCN(c3ccc(OC)cc3)CC2)c2ccccc12 | 980

Row | Structure (SMILES) | RP-LC retention time [s]
24 | Cc1ccc(C)c(NC(=O)Cc2c(C(=O)O)c(C)cn2C)c1 | 795
25 | CC(C)NC(=O)C1CCCN(C(=O)Nc2ccc(NC(=O)Nc3ccccc3)cc2)C1 (centres undefined) | 720
26 | CCN1CCCn2nc(C3CCN(C(=O)COc4cccc(Cl)c4)CC3)cc2C1=O | 751
27 | Cc1cccc(NC(=O)C2CCN(S(=O)(=O)c3cc(C(=O)N4CCOCC4)cs3)CC2)c1C | 760
28 | Cc1ccn2c(NC(=O)CC(C)(C)C)c(-c3ccccc3)nc2c1 | 666
29 | CC(C)NC(=O)N1CC=C(c2cn(C(C)C)c3ncccc23)CC1 | 632
30 | CCCN(CCC)C1CCc2cc(O)c(O)cc2C1 (centres undefined) | 641
31 | COc1ccc(CNC(=O)C2CCCN(c3nnc4ccc(Cl)cn34)C2)cc1 (centres undefined) | 657
32 | CCOC(=O)c1c(S(=O)(=O)N2CCC(C(=O)Nc3ccc(OCC)cc3)CC2)c(C)n(C)c1C | 853
33 | Cc1ccc(NC(=O)Cn2nc(N3CCC(C)CC3)c3ccccc3c2=O)cc1 | 1140
34 | Cc1nnc(-c2ccc3ccn(CC(=O)Nc4ccccn4)c3c2)o1 | 670
35 | Cc1ccc(CNC(=O)C2(C)Cn3nc(C)cc3C(=O)N2c2ccc3c(c2)OCCO3)cc1 (centres undefined) | 809
36 | CCCc1cc(N2CCN(C(=O)c3ccc(F)cc3)CC2)nc2nncn12 | 620
37 | CCOc1ccccc1CN1CCc2nc(Nc3ccc(F)cc3)ncc2C1 | 616
38 | CCOC(=O)c1nc(NCCN2CCCc3ccccc32)c2ccccc2n1 | 729
39 | CCn1cnc(S(=O)(=O)N2CCCC(C(=O)NCc3cccc(C)c3)C2)c1 (centres undefined) | 747
40 | COc1ccc2c(c1)C1CC(C)(NC(=O)C1S(=O)(=O)c1ccc(C)cc1)O2 (centres undefined) | 893
41 | COc1ccc(NC(=O)C2CCN(c3cc(N4CCSCC4)ncn3)CC2)cc1OC | 627
42 | Cc1ccc(C2c3[nH]c4ccccc4c3CCN2C(=O)Cc2cccs2)cc1 (centres undefined) | 988
43 | Cc1cccc(C(=O)Nc2nc(-c3ccc4c(c3)NC(=O)C(C)O4)cs2)c1 (centres undefined) | 962
44 | NC(=O)C1CCN(C(=O)C2COC3(CCCCC3)N2C(=O)c2ccccc2)CC1 (centres undefined) | 606
45 | O=C(Cn1cc(-c2ccccc2)c(N2CCOCC2)n1)N1CCN(c2ccccc2F)CC1 | 978
46 | COc1ccc(-c2cn3c(CC(=O)N4CCc5ccccc54)csc3n2)cc1OC | 748

Row | Structure (SMILES) | RP-LC retention time [s]
47 | Cc1cc2n(n1)CCCN2C(=O)CCC(=O)N1CCC(Cc2ccccc2)CC1 | 818
48 | O=C1CC(c2noc(CCc3ccccc3)n2)CN1c1ccc(F)c(Cl)c1 (centres undefined) | 1050
49 | CCCCN(CC)CCNC(=O)C1CCC(=O)N(c2ccc(OC)cc2)C1c1ccc(F)cc1 (centres undefined) | 633
50 | Cc1cccc(-c2nc3sc(N4CCCCC4)nn3c2NC(=O)c2ccnn2C)c1 | 885
51 | CCCNS(=O)(=O)c1cc(-c2[nH]ncc2C(=O)N(C)C)oc1C | 608
52 | CCc1nc(-c2csc(S(=O)(=O)N3CCCC(C(=O)NCc4ccccc4C)C3)c2)no1 (centres undefined) | 1010
53 | COc1ccc(C2C(C(=O)NCCN(C)C)c3cc(OC)c(OC)cc3C(=O)N2C)cc1 (centres undefined) | 597
54 | Cc1ccc(NC(=O)c2cccn2Cc2noc(C)n2)c(Cl)c1 | 945
55 | COc1ccc(Cl)cc1NC(=O)N(C)CCc1noc(COc2ccccc2F)n1 | 979
56 | COc1ccc(CCNC(=O)C2CCc3nc(N4CCCC4)ncc3C2)cc1OC (centres undefined) | 563
57 | NC(=O)c1cccn1Cc1ccccc1Cl | 804
58 | O=C(NCCS(=O)(=O)N1CCN(c2ccc(F)cc2)CC1)c1cccc([N+](=O)[O-])c1 | 834
59 | O=C(NCc1ccc2c(c1)OCO2)c1ccc(-c2cc(N3CCOCC3)ncn2)cc1 | 643
60 | O=C(COc1ccccc1)Nc1cnc(N2CCCCC2)nc1 | 919
61 | COc1ccc(-c2noc(-c3cccn(CC(=O)Nc4ccc(C#N)cc4)c3=O)n2)cc1OC | 779
62 | Cc1ccc(Cn2cc(CCC(=O)N3CCC(C(N)=O)CC3)c3ccccc32)cc1 | 813
63 | CCc1ccccc1NC(=O)c1cc(CC)n2nccc2n1 | 1150
64 | COc1ccc(Cl)cc1S(=O)(=O)N1C[C@@H](F)C[C@H]1C(=O)N1CCCCC1 | 785
65 | Cc1cc(C)cc(NS(=O)(=O)c2cc(-c3nc(C)cs3)sc2C)c1 | 1080
66 | Cc1cccnc1NC(=O)Nc1c[nH]c2ccccc12 | 826
67 | COc1cccc(CN2CCc3nn(C)c(=O)n3CC2)n1 | 544
68 | COc1ccc(C(C)NC(=O)C2=C3CCCN3c3ccc(F)cc3S2(=O)=O)cc1 (centres undefined) | 899
69 | O=C(NCCCc1ccccc1)C1CCN(S(=O)(=O)c2ccc(-c3noc(C4CC4)n3)cc2)CC1 | 1060

Row | Structure (SMILES) | RP-LC retention time [s]
70 | COCc1cn(CC2CCCN(Cc3cn(C(C)C)c4ccc(OC)cc34)C2)nn1 (centres undefined) | 648
71 | O=C(NCC1CCCO1)NC1CC(=O)N(c2ccc(Cl)cc2)C1 (centres undefined) | 634
72 | COc1ccc(NC(=O)N2CCN(c3nc4ccncc4n(CC(C)C)c3=O)CC2)cc1 | 587
73 | O=C1NCCCn2cc(S(=O)(=O)N3CCN(c4cccc(Cl)c4)CC3)cc21 | 804
74 | O=C(CN1C(=O)C2CCCCN2c2ccc(C(=O)N3CCCC3)cc21)NCC1CCCO1 (centres undefined) | 672
75 | Cc1c(S(=O)(=O)N2CCCCC2)c(C)n(C)c1-c1nnc(C2CCC2)o1 | 1000
76 | Cc1cc2c(=O)n(CC(=O)Nc3ccc(Cl)cc3)ccc2s1 | 852
77 | COc1ccc(-c2ccc(=O)n(Cc3nc(-c4ccc(F)cc4)no3)n2)cc1 | 995
78 | Cc1cc2c(c(=O)n(-c3ccccc3)c(=O)n2CC(=O)Nc2cccc(C#N)c2)n1C | 784
79 | COC(=O)c1c(-c2ccc(Cl)cc2)noc1NCCCN1CCOCC1 | 667
80 | COC(=O)c1ccc(-c2nc3cnccn3c2Nc2cccc(C(=O)OC)c2)cc1 | 822
81 | Cc1cc(C(=O)NCCOc2ccc3nnc(-c4ccccc4)n3n2)c(C)o1 | 698
82 | COc1ccc(CNC(=O)C2CCN(c3ccc(SCc4ccccc4)nn3)CC2)cc1 | 742
83 | O=C(NCc1ccco1)C1CC(=O)N(c2ccc3c(c2)CCN3C(=O)C2CCC2)C1 (centres undefined) | 734
84 | COc1ccc(Br)cc1CNC(=O)C1CCCN(c2ccc(N3CCOCC3)nn2)C1 (centres undefined) | 668
85 | Fc1ccccc1-c1noc(Cc2nnc(-c3cccc(Br)c3)o2)n1 | 1110
86 | Cc1ccc(-c2noc(C3CC3)n2)cc1S(=O)(=O)N1CCC(C(=O)NC2CC2)CC1 | 836
87 | Cc1[nH]c(C)c(S(=O)(=O)N2CCC(C(=O)NC3CC3)CC2)c1C(=O)N1CCCCC1 | 630
88 | COCCN1C(=O)CCc2cc(NS(=O)(=O)c3cc(C)ccc3C)ccc21 | 1060
89 | CN(C)S(=O)(=O)c1ccc(C(=O)N2CCC(Oc3nc4ccccc4s3)CC2)cc1 | 892
